Reference: patent US8188102B2, “Amide derivative for inhibiting the growth of cancer cells” (Hanmi Holdings Co., Ltd., priority 2007, dated 2012)
Like-named read-outs stand apart in the source and are kept apart here.

How the values were obtained:
EGFR = target: T1, EGFR (Homo sapiens, UniProt P00533); experiment: Prolongation study in A431 cells (EGFR phosphorylation inhibition); type: cell-based; details: A-431, 1 μM for 4 hrs, then washed, EGF 100 ng/ml
T1 construct: A skin cancer cell line, A431 (ATCC: CRL-1555), was used; endogenous in cells; host or cells: A431 (ATCC: CRL-1555)
T1 sequence (P00533 25-1210): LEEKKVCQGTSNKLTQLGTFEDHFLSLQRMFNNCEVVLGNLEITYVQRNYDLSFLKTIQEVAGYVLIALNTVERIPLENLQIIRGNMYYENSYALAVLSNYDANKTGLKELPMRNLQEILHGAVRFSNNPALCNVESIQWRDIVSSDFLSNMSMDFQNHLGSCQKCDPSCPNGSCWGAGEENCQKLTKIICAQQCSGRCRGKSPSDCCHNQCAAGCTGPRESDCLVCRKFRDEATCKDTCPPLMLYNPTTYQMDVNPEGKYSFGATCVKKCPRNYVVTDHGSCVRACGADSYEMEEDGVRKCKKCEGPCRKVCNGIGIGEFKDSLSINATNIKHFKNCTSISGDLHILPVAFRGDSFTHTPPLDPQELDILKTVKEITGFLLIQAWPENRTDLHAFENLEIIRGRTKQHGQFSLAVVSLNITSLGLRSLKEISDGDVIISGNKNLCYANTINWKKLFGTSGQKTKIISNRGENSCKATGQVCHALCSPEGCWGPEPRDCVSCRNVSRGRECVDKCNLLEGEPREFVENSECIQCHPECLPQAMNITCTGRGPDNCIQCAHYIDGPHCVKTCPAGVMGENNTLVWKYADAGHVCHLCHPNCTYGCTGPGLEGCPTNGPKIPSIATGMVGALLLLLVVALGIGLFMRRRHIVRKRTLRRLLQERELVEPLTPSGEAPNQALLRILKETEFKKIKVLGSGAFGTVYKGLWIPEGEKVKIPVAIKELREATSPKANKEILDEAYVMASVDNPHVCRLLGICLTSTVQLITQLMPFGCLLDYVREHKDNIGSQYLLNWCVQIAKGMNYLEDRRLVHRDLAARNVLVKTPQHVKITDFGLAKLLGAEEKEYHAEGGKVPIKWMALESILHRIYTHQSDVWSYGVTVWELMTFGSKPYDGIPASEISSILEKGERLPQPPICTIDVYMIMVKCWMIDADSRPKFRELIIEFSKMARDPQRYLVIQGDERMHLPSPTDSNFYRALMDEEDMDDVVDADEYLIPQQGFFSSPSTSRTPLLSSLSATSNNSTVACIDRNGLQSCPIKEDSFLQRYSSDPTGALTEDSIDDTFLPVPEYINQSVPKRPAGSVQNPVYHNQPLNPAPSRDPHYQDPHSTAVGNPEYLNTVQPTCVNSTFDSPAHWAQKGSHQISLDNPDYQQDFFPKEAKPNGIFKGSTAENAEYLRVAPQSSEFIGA
Description: A skin cancer cell line, A431 (ATCC: CRL-1555), was used to test the degrees of the inventive compounds in inhibiting EGFR's phosphorylation and the prolongation of ability to inhibit it thereof.
The cell line was incubated in a culture flask at 37° C. under 95% air and 5% CO2 using a culture medium containing DMEM, 10% FBS and 1% PS. When more than 90% of the total volume of the culture flask became filled with cells, the cultured cell solution was subject to secondary incubation and was poured to each well of a 6-well plate to the extent of 500,000 cells/well. After 24 hrs, the cells were separated from the solution, washed with PBS, and incubated in a culture medium containing DMEM, 0.1% FBS and 1% PS for 16 hrs. The compounds obtained in Examples 1, 17, 19 and 36, and Tarceva as EGFR phosphorylation inhibitors were each added to the cell-containing well to a concentration of 1 μM. After 4 hrs, the cells were separated from the solution, washed 4 times with PBS after every 0, 2, 4 and 8 hrs, and incubated in a culture medium containing DMEM, 0.1% FBS and 1% PS. […] Just before the completion of the reaction, the cultured cell solution was treated with a 100 ng/ml concentration of EGF (Sigma, Cat No. E9644) for 5 mins to induce the activation of EGFR. After the completion of the reaction, the well plate holding the cultured cells was stored at −70° C. In control groups, the replacement of the medium was performed instead of the addition of the EGFR phosphorylation inhibitor, wherein the induction of EGFR activation using EGF was made only in a positive control group and not made in a negative control group.
For Western blot and enzyme immune measuring (ELISA) methods, the well plate stored at −70° C. was allowed to melt to room temperature, and then protein was extracted from the cells in the well plate using a protein extract buffer. The extraction of the protein was performed as follows: 250 μl of the protein extract buffer (Phosphosafe extraction reagent, Calbiochem, Cat No. 71296-3) comprising protease inhibitor cocktail was added to each cell-containing well, which was stirred at room temperature for 5 mins. The cells were collected using a cell scraper and put in an 1.5 ml tube, which was centrifuged at a speed of 16,000×g for 5 mins. The upper layer thus obtained was separated, of which the protein content was determined by a protein assay kit (Bio-rad, Cat No. 500-0116). The protein extracted was diluted with PBS to a concentration of 0.8 mg/ml.
A human EGFR (py1173) immunoassay kit (Biosource, Cat No. KHR9071) was used in the enzyme immune measuring method. 100 μl of the sample which was diluted by 4 folds with a standard dilution buffer in a kit was added to a strip well, which was incubated at a 4° C. refrigerator overnight. The cultured cells was separated therefrom and washed 4 times with 200 μl of a washing buffer. 100 μl of the resulting primary antibody (anti-human EGFR [pY1173]) was put to each strip well, incubated at 37° C. for 1 hr, and washed 4 times with 200 μl of a washing buffer. The resulting secondary antibody (anti-rabbit IgG-HRP) was diluted by 100 folds with an HRP dilution buffer in a kit. 100 μl of the dilute was put to each strip well, incubated at 37° C. for 30 mins, and washed 4 times with 200 μl of the washing buffer. 100 μl of an HRP substrate in a kit was put to each strip well and incubated in a darkroom for 10 to 30 mins. 100 μl of a reaction stop solution was added thereto to terminate the reaction, and then, the absorbance at 450 nm was observed.
Electrophoresis and Western blot methods were conducted based on the conventional methods in the following: An LDS buffer was added to each sample, which was allowed to boil at 70° C. for 10 mins. 10 μl of the resulting solution was loaded to a 12-well gel (Nupage 4˜12% Bis-tris gel, Invitrogen), followed by 120 volt-electrophoresis in a buffer (MOPS electrophoresis buffer, Invitrogen, Cat No. NP0006-1) for 2 hrs. […]

[1] = tested on: SK-Br3 breast cancer cell line; experiment: Cancer cell growth inhibition, SK-Br3 (SRB); details: Homo sapiens, SK-BR-3, 72 h, read-out: ID50 (nM) SK-Br3
[2] = tested on: SW-620 colon/rectal cancer cell line; experiment: Cancer cell growth inhibition, SW-620 (SRB); details: Homo sapiens, SW-620, 72 h, read-out: IC50 (nM) SW-620
EGFR T790M kinase = EGFR T790M kinase (Homo sapiens, UniProt P00533, T790M); experiment: Inhibition of EGFR mutant enzyme (T790M)
EGFR T790M kinase, sequence (P00533 25-1210 T790M): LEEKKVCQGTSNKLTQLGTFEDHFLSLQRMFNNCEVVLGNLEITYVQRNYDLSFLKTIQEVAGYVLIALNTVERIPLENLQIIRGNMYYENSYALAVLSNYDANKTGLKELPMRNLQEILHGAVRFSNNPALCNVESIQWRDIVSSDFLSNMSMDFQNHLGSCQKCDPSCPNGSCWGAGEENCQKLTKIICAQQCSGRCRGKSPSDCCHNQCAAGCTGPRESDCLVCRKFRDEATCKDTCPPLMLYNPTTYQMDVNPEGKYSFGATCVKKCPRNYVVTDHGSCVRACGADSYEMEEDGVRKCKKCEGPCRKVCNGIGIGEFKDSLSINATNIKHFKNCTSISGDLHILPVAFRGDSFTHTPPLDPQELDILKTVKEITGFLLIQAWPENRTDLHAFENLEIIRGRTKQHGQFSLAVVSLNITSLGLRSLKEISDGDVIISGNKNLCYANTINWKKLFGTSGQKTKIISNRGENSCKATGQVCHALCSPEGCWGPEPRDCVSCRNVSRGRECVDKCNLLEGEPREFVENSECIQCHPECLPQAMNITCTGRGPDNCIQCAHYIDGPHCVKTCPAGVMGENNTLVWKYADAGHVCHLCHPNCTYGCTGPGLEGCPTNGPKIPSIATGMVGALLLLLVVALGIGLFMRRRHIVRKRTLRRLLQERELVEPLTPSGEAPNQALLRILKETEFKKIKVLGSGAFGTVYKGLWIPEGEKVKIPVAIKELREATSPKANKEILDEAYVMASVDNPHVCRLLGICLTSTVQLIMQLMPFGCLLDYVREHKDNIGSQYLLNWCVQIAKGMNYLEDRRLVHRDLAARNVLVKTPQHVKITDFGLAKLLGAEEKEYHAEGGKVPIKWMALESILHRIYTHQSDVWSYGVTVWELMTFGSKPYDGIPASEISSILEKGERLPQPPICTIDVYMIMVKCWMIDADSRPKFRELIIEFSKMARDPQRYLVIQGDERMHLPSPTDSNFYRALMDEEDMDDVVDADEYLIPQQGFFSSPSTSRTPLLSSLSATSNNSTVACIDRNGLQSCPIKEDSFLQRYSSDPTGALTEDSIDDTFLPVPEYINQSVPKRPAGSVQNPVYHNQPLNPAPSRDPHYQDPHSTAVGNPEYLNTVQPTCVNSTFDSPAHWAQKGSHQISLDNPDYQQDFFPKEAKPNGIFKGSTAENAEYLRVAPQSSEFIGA

[3] = tested on: A431 skin cancer cell line; experiment: Cancer cell growth inhibition, A431 (SRB); details: Homo sapiens, A-431, 72 h, read-out: ID50 (nM) A431
[4] = tested on: H1975 lung cancer cell line; experiment: Cancer cell growth inhibition, H1975 (celltiter); details: Homo sapiens, NCI-H1975, 48 h, read-out: IC50 (nM) H1975
Description: The medium was removed from each well of the 96-well plate.
In case of H1975, the cells were diluted with a culture medium to a concentration of 50,000 cells/ml. 100 μl of the diluted cell solution was added to each well of a 96-well plate, and, after 1 day, was washed with a mixture of RPMI, 0.1% FBS and 1% penicillin-streptomycin (PS), followed by replacement of the medium. The plate was allowed to be kept overnight and be treated to various concentrations under the same medium condition for 48 hrs. Similarly to an MTT assay, 15 μl of a celltiter one shot solution (Promega) was added to each well, which was incubated for 2 to 3 hrs, and, then, the absorbance at 490 nm was determined.

[5] = target: EGFR (EGFR type 1 kinase, Upstate) (Homo sapiens, UniProt P00533); experiment: Inhibition of EGFR enzyme (fluorescence polarization kinase assay)
EGFR (EGFR type 1 kinase, Upstate), sequence (P00533 25-1210): as the sequence (P00533 25-1210) above
Description: 10 μl of an EGFR (EGFR type 1 kinase, Upstate, 10 ng/μl) was added to each well of a 96-well plate. […] The calculation and analysis of IC50 were carried out by using Microsoft Excel.

[6] = 0 hr after washing, read-out: EGFR phosphorylation inhibition in A431 cell line (%) 0 hr Avg.
[7] = 8 hrs after washing, read-out: EGFR phosphorylation inhibition in A431 cell line (%) 8 hrs Avg.
[8] = 24 hrs after washing, read-out: EGFR phosphorylation inhibition in A431 cell line (%) 24 hrs Avg.
[9] = 48 hrs after washing, read-out: EGFR phosphorylation inhibition in A431 cell line (%) 48 hrs Avg.
[10] = read-out: IC50 (nM) T790M, EGFR T790M kinase
[11] = read-out: IC50 (nM) EGFR, EGFR type 1 kinase, ATP 50 μM

inhibition at 1 µM (EGFR; [6]) [%] | inhibition at 1 µM (EGFR; [7]) [%] | inhibition at 1 µM (EGFR; [8]) [%] | inhibition at 1 µM (EGFR; [9]) [%] | inhibition at 1 µM (EGFR; 72 hrs after washing, read-out: EGFR phosphorylation inhibition in A431 cell line (%) 72 hrs Avg.) [%] | IC50 (EGFR T790M kinase) [nM] | IC50 [5] [nM] | Compound | IC50 [1] [nM] | IC50 [2] [nM] | IC50 (EGFR T790M kinase; [10]) [nM] | IC50 [3] [nM] | IC50 [4] [nM] | IC50 [5, 11] [nM]
90 | 89 | 81 | 41 | 44 |  |  | C=CC(=O)N1CCC(Oc2cc3c(Nc4ccc(Cl)c(Cl)c4F)ncnc3cc2OC)CC1 [Example 36, 1-(4-(4-(3,4-dichloro-2-fluorophenylamino)-7-methoxyquinazolin-6-yloxy)piperidin-1-yl)pro-2-pen-1-one] | 0.3 | > 5000 |  |  |  | 
 |  |  |  |  |  |  | C=CC(=O)N1CC[C@H](Oc2cc3c(N[C@H](C)c4ccccc4)ncnc3cc2OC)C1 [Example 11] | 13 |  | 27 | 8 | 167 | 12
 |  |  |  |  |  |  | C=CC(=O)N1CC(Oc2cc3c(Nc4cccc(Cl)c4F)ncnc3cc2OC)C1 [Example 23, 1-(3-(4-(3-chloro-2-fluorophenylamino)-7-methoxyquinazolin-6-yloxy)azetidin-1-yl)pro-2-pen-1-one] | 0.5 | > 5000 | 4 | 1.6 | 9 | 6
 |  |  |  |  |  |  | C=CC(=O)N1CCC(Oc2cc3c(Nc4cccc(Cl)c4F)ncnc3cc2OC)CC1 [Example 34, 1-(4-(4-(3-chloro-2-fluorophenylamino)-7-methoxyquinazolin-6-yloxy)piperidin-1-yl)pro-2-pen-1-one] | 0.2 | > 5000 | 5 | 2 | 22 | 6
 |  |  |  |  |  |  | C=CC(=O)N1CC(Oc2cc3c(Nc4cccc(Cl)c4)ncnc3cc2OC)C1 [Example 26, 1-(3-(4-(3-chlorophenylamino)-7-methoxyquinazolin-6-yloxy)azetidin-1-yl)pro-2-pen-1-one] | 6 | > 5000 | 3.3 | 1.6 | 17.7 | 1.6
 |  |  |  |  |  |  | C=CC(=O)N1CC[C@H](Oc2ccc3ncnc(Nc4ccc(F)c(Cl)c4F)c3c2)C1 [Example 15, 1-((3S)-3-(4-(3-chloro-2,4-difluorophenylamino)quinazolin-6-yloxy)pyrrolidin-1-yl)pro-2-pen-1-one] | 25 |  | 54 | 5 | 413 | 9
 |  |  |  |  | 24 | 2.7 | C=CC(=O)N1CCC(Oc2ccc3ncnc(Nc4ccc(F)c(Cl)c4F)c3c2)CC1 [Example 71, 1-(4-(4-(3-chloro-2,4-difluorophenylamino)quinazolin-6-yloxy)piperidin-1-yl)pro-2-pen-1-one] | 5 |  |  | 8 | 70 | 
 |  |  |  |  |  |  | C=CC(=O)N1CC[C@H](Oc2cc3c(Nc4ccc(OCc5ccccn5)c(Cl)c4)ncnc3cc2OC)C1 [Example 10, 1-((3S)-3-(4-(3-chloro-4-(pyridin-2-ylmethoxy)phenylamino)-7-methoxyquinazolin-6-yloxy)pyrrolidin-1-yl)pro-2-pen-1-one] | 7 | > 5000 | 10 | 14 |  | 5
 |  |  |  |  |  |  | C=CC(=O)N1CC[C@H](Oc2ccc3ncnc(Nc4ccc(OCc5cccc(F)c5)c(Cl)c4)c3c2)C1 [Example 16, 1-((3S)-3-(4-(3-chloro-4-(3-fluorobenzyloxy)phenylamino)quinazolin-6-yloxy)pyrrolidin-1-yl)pro-2-pen-1-one] | 7 | > 5000 | 47 | 15 |  | 8
71 | 71 | 73 | 42 |  |  |  | C=CC(=O)N1CC[C@H](Oc2cc3c(Nc4ccc(F)c(Cl)c4F)ncnc3cc2OC)C1 [Example 1, 1-((3S)-3-(4-(3-chloro-2,4-difluorophenylamino)-7-methoxyquinazolin-6-yloxy)pyrrolidin-1-yl)prop-2-en-1-one] | 8 | > 5000 |  | 4 | 80 | 
 |  |  |  |  |  |  | C=CC(=O)N1CC[C@@H](Oc2cc3c(Nc4ccc(F)c(Cl)c4F)ncnc3cc2OC)C[C@@H]1C(=O)NC [Example 136, (2R,4R)-1-acryloyl-4-(4-(3-chloro-2,4-difluorophenylamino)-7-methoxyquinazolin-6-yloxy)-N-methylpiperidin-2-carboxamide] | 0.2 | > 5000 | 0.9 | 2.9 | 2.6 | 
 |  |  |  |  |  |  | C=CC(=O)N1CC(Oc2cc3c(N[C@H](C)c4ccccc4)ncnc3cc2OC)C1 [Example 22, (R)-1-(3-(7-methoxy-4-(1-phenylethylamino)quinazolin-6-yloxy)azetidin-1-yl)pro-2-pen-1-one] | 1 |  | 15 | 7 | 156 | 6
 |  |  |  |  |  |  | C=C(CN(C)C)C(=O)N1CC(Oc2cc3c(Nc4ccc(F)c(Cl)c4F)ncnc3cc2OC)C1 [Example 104, 1-(3-(4-(3-chloro-2,4-difluorophenylamino)-7-methoxyquinazolin-6-yloxy)azetidin-1-yl)-2-((dimethylamino)methyl)prop-2-en-1-one] | 1.5 | > 5000 | 2 | 41 | 11 | 
 |  |  |  |  |  |  | C=C(CN1CCOCC1)C(=O)N1CC(Oc2cc3c(Nc4ccc(F)c(Cl)c4F)ncnc3cc2OC)C1 [Example 105, 1-(3-(4-(3-chloro-2,4-difluorophenylamino)-7-methoxyquinazolin-6-yloxy)azetidin-1-yl)-2-(morpholinomethyl)prop-2-en-1-one] | 0.5 | > 5000 | 4 | 1.5 | 8 | 
